These results are taken from US11986474B1, “Methods for treating heart failure by administering cardiac sarcomere activators” (Cytokinetics, Incorporated, priority 2023, dated 2024).

Series [1] relates to patients with heart failure with reduced ejection fraction. Particulars: randomized, placebo-controlled phase 3 clinical trial; cited from earlier work.
In series [2] the test system is patients with chronic heart failure with reduced ejection fraction. Particulars: cited from earlier work.
Series [3] can be described thus: GALACTIC-HF plasma concentration of omecamtiv mecarbil (PK-guided dosing). The format is in vivo. Conditions: Week 8 visit (Week 6 concentration). The protocol: (§1) In a phase 3 clinical trial, Global Approach to Lowering Adverse Cardiac Outcomes through Improving Contractility in Heart Failure (GALACTIC-HF), all eligible participants were randomized 1:1 to oral administration of either placebo or omecamtiv mecarbil (pharmacokinetic-guided dosing: 25, 37.5 or 50 mg) twice daily. Pre-dose plasma concentrations of omecamtiv mecarbil were measured at weeks 2 and 6 with respective dose adjustments on weeks 4 and 8. The patient and investigator were blinded to the plasma concentrations and dispensed dose.
(§2) Participants randomized to omecamtiv mecarbil were started at the lowest dose of 25 mg twice daily. […] At the end of Week 8, 28.6% of participants were on 25 mg BID (including participants whose plasma concentration results were not available in time for any dose titration visit or participant compliance with dosing was not affirmatively documented by the investigator), which was higher than the anticipated proportion (4.1%) based on population PK modeling. In participants who completed the dosing algorithm as intended and were titrated to 37.5 or 50 mg BID, mean omecamtiv mecarbil plasma concentrations were higher than those in the 25 mg BID dose group. Participants titrated to doses of 37.5 or 50 mg BID tended to have reduced risk of the primary composite endpoint and cardiovascular death compared to those at a dose of 25 mg BID, as shown in Table 2 below.
A summary of participants by dose group at Week 4 (dose selection determined by the Week 2 concentrations of omecamtiv mecarbil), at Week 8 (dose selection determined by the Week 6 concentrations of omecamtiv mecarbil), and the final dose at Week 12, is provided in Table 3. Overall, the proportions of participants receiving each of the omecamtiv mecarbil doses remained generally consistent over time. At the Week 8 visit, 3.0% of participants had their doses adjusted from 50 to 25 mg BID and 1.1% from 37.5 to 25 mg BID. […]

In series [4] the test system is patients with heart failure with reduced ejection fraction. As to the kind of experiment: GALACTIC-HF phase 3 clinical trial, outcomes by titrated dose group. The format is in vivo, human. Particulars: for Hazard Ratio, CV Death / Hazard Ratio, Primary Endpoint: OM vs PBO. As for the experimental part:
In a phase 3 clinical trial, Global Approach to Lowering Adverse Cardiac Outcomes through Improving Contractility in Heart Failure (GALACTIC-HF), the following dosing regimen was used to assess treatment effect with omecamtiv mecarbil in patients with heart failure with reduced ejection fraction. At the initiation of treatment, a first dose level of 25 mg twice daily was orally administered to subjects randomized to receive omecamtiv mecarbil. At study visit week 2, a predose blood sample was collected. At week 4, subjects with week 2 omecamtiv mecarbil predose plasma concentration of less than 200 ng/mL would increase their dose level to 50 mg twice daily; subjects with week 2 plasma concentrations greater than or about 200 ng/mL but less than 300 ng/mL would increase their dose level to 37.5 mg twice daily; subjects with week 2 plasma concentrations greater than or about 300 ng/mL but less than 1000 ng/mL would maintain a dose level of 25 mg twice daily; and subjects with plasma concentration greater than or about 1000 ng/mL would start administration of placebo twice daily. At weeks 6, a predose blood sample was collected to confirm plasma concentration achieved and assess if changes to the dose should be made. […] The dosing regimen used in the GALACTIC-HF study was associated with reduced risk of heart failure outcomes and a very low incidence of excessive concentrations of omecamtiv mecarbil (e.g., plasma concentration over 1000 ng/mL). Treatment results were described in, for example, Cardiac Myosin Activation with Omecamtiv Mecarbil in Systolic Heart Failure (Teerlink et al., N. Engl. J. Med., 2021, 384; 2) and NCT02929329.
as §1, §2

In series [5] the test system is cardiomyocyte calcium transient. Particulars: cited from earlier work.
[6] abbreviates: patients with chronic HFrEF, treatment for 20 weeks.
Setting [7] is: 25 mg BID dose group, Cox Model Adjusting for Significant Baseline Covariates.
The mark [8] stands for this setting: 25 mg BID dose group, Planned Primary Analysis Cox Model.
The mark [9] stands for this setting: 37.5 mg BID dose group, Cox Model Adjusting for Significant Baseline Covariates.
Where [10] appears, read: 37.5 mg BID dose group, Planned Primary Analysis Cox Model.
[11] abbreviates: 50 mg BID dose group, Cox Model Adjusting for Significant Baseline Covariates.
Setting [12] is: 50 mg BID dose group, Planned Primary Analysis Cox Model.

Molecules are shown by their SMILES.

Take `COC(=O)N1CCN(Cc2cccc(NC(=O)Nc3ccc(C)nc3)c2F)CC1` [omecamtiv mecarbil, methyl 4-(2-fluoro-3-(3-(6-methylpyridin-3-yl)ureido)benzyl)piperazine-1-carboxylate]: in series [1], the “relative risk of a heart-failure event or death from cardiovascular causes vs placebo” value is listed as “lower relative risk” and the “risk of myocardial ischemic events, ventricular arrhythmias, or death from cardiovascular causes or any cause” value is “without evidence of an increase”. For the same molecule, the cardiac performance result in series [2] (early clinical studies, short-term intravenous administration) is “improved”. Also, the “plasma concentration above which the risk of cardiac ischemic events is increased” value in series [2] (likely due to shortening of diastole and decreased coronary perfusion) is recorded as “exceeding 1200 ng/mL”. In addition, in series [2] (setting [6]), the “left ventricular systolic and diastolic volumes” value is “decreased”; the “left ventricular systolic function” value is “increased”; the “natriuretic peptide concentrations and heart rate” value is reported as “reduced”. Further, in series [3], the “participants with down titration due to plasma concentration exceeding 750 ng/mL, number (%)” value is recorded as 9 (0.22%) and the “participants with down titration, plasma concentration in the 750 to <1,000 ng/mL range” value came out at 8 participants. Moreover, the concentration at 6 weeks in series [3] (human, plasma, oral, read-out: plasma concentration of the 1 down-titrated participant above 1,000 ng/mL) was determined as 1000 ng/mL. For the same molecule, in series [4] (setting [7]), the “Hazard Ratio, CV Death” value worked out at 1.11 and the “Hazard Ratio, Primary Endpoint” value worked out at 0.93. Also, in series [4] (setting [8]), the “Hazard Ratio, CV Death” value was 1.18 and the “Hazard Ratio, Primary Endpoint” value came out at 1.00. Moreover, the “Primary Endpoint, participants n/N” value in series [4] (37.5 mg BID dose group, OM arm) is reported as “OM (225/602) vs PBO (1,477/3,897)”. Moreover, in series [4] (setting [9]), the “Hazard Ratio, CV Death” value is on record as 0.94 and the “Hazard Ratio, Primary Endpoint” value came to 0.90. Further, in series [4] (setting [10]), the “Hazard Ratio, CV Death” value is recorded as 1.00 and the “Hazard Ratio, Primary Endpoint” value worked out at 0.93. In series [4] (setting [11]), the “Hazard Ratio, CV Death” value was 0.98 and the “Hazard Ratio, Primary Endpoint” value is 0.89. Moreover, in series [4] (setting [12]), the “Hazard Ratio, CV Death” value amounted to 0.91 and the “Hazard Ratio, Primary Endpoint” value came to 0.87. The “effect on intracellular calcium transients” value in series [5] is recorded as “no effect”.
